# Laboratory results taken from a melting point compilation (Tetko et al.; mined from patent text by program, amines drawn as free bases though some values may be those of a salt).
row,melting point [°C],Structure (SMILES)
1,145 to 148,COc1cc(OC)cc(-c2nc(-c3ccccn3)no2)c1
2,197,COc1cc2cc3c(nc2cc1OC)CCc1cc(Cl)ccc1-3
3,71 to 72,COc1ccc(CF)c(CN(C(C)=O)c2cc(F)ccc2Oc2ccccc2)c1
4,70 to 72,CC1CCc2ccc(OCC(O)CCl)cc2O1 (configuration not stated)
5,108 to 110,[N-]=[N+]=NS(=O)(=O)c1ccc(N2CC(CO)OC2=O)cc1 (configuration not stated)
6,122 to 124,COC(=O)c1cc2ccc(OC)cc2cc1/N=C/N(C)C
7,215,COCC(C(=O)O)N(CCN(CC(=O)O)C(COC)C(=O)O)CC(=O)O (configuration not stated)
8,48 to 54,Nc1ccccc1CNC1CCC(=O)NC1=O (configuration not stated)
9,46 to 47,O=Cc1cccc([N+](=O)[O-])c1F
10,123 to 125,Cc1ccc(CON2C(C(F)(F)F)C(C(=O)Nc3ccccc3)=CN2C)c(C)c1 (configuration not stated)
11,104 to 107,COc1cc2c(cc1OC)N(C(=O)CCSC(C)=O)C(C(=O)O)CC2 (configuration not stated)
12,121,CCCNc1ccc(Cl)cc1Cl
13,120 to 123,N#Cc1cccc(C(CC(=O)c2ccc(F)cc2)CC(=O)c2ccc(F)cc2)c1
14,114 to 115,CCOC(=O)c1cc(C(C)=O)[nH]n1
15,87 to 88,CCOC(=O)c1nnc(Cc2ccccc2Cl)n1C
16,146,O=C(CCl)Nc1nc(C(Cl)(Cl)Cl)ns1
17,158,N#Cc1cc(F)c(NN)cc1F
18,140 to 141,CN(C)C=C(C#N)C=O
19,278 to 279,CCOC(=O)CN(C)CCCNC(=O)C=CC(=O)Nc1ccc2ncnc(Nc3cccc(Br)c3)c2c1
20,171,CC(O)Cn1cnc2cnc3ccccc3c21 (configuration not stated)
21,236,COC(=O)c1[nH]c2ncccc2c1-c1ccc(N)cc1
22,163 to 164,CCOC(=O)c1ccc(-c2csc(-c3ccc(C(F)(F)F)cc3)n2)cc1
23,226,CC(Sc1ccc(NC(=O)NC(=O)c2ccccc2Cl)cc1)c1ccccc1 (configuration not stated)
24,239,NS(=O)(=O)c1cc2c(c(C(=O)N3CCN(c4ncccn4)CC3)c1)OCCO2
25,214 to 217,CC1(C)c2cc(NS(C)(=O)=O)ccc2CC2C1CCCN2CC1CCCCC1 (configuration not stated)

row,melting point [°C],Structure (SMILES)
1,180,Fc1ccc([C@]2(Cn3nc[nH]c3=S)O[C@H]2c2ccccc2Cl)c(F)c1 (racemic)
2,82 to 85,CC(=O)OC(CCc1cc(C(C)(C)C)c(O)c(C(C)(C)C)c1)CCc1cc(C(C)(C)C)c(O)c(C(C)(C)C)c1
3,78 to 80,Cc1ccccc1-c1c(Cl)nc2ccccc2c1Cl
4,190 to 192,NS(=O)(=O)c1ccc(NN=Cc2ccc(Br)cc2)cc1
5,138 to 140,O=C(O)/C(=N/O)c1ccc(OCCOc2ccc3ccccc3c2)s1
6,169 to 173,CC(C)(NC(=O)C(CS)NC(=O)c1ccccc1)c1ccccc1 (configuration not stated)
7,170,O=CN[C@H]1CC[C@H](CCN2CCN(c3nccc4c3CCO4)CC2)CC1
8,> 350,COc1cc(OC)c2c(=O)[nH]c(-c3ccc(N4CCC(=O)CC4)cc3)nc2n1
9,131 to 132,COc1ccc(N2C[C@](C)(CO)OC2=O)cc1
10,197 to 199,COc1cc2c(cc1F)CC/C2=C\C#N
11,122,CCN1CCc2cc(S(=O)(=O)C[N+](=O)[O-])ccc21
12,77 to 78,C=C(C(=O)c1ccc(OC)c(OC)c1)c1ccc(F)cc1
13,124 to 125,CCC(CC)N(O)C(=O)NCCCC(C)CNC(=O)N(O)C(CC)CC (configuration not stated)
14,144 to 145,CC(=O)OCC(=O)c1cc2c(s1)CCC1CC(=O)N(c3ccc(C)cc3)N=C21 (configuration not stated)
15,65 to 67,CCOC(=O)C(F)Cc1ccc(OCCN(C)c2nc3ccccc3o2)cc1 (configuration not stated)
16,135 to 136,COC(=O)CCC1OC(=O)C(O)=C1c1ccccc1 (configuration not stated)
17,182 to 185,CCc1nc2c(N)nc3ccccc3c2n1CCCCSc1ncccn1
18,249 to 252,CC1CN(c2c(F)cc3c(=O)c(C(=O)O)cn(C4CC4)c3c2F)CC1CN (configuration not stated)
19,230,COc1ccc(-c2nc3ccc(O)cc3[nH]2)cc1C12CC3CC(CC(C3)C1)C2
20,149,COc1cccc(C=C2c3ccccc3CCc3ccccc32)c1F
21,187 to 189,CCOC(=O)c1csc2nc(C(=O)OC)cn12
22,168 to 170,O=C(c1cccs1)c1cccc(O)c1C(=O)O
23,82 to 84,CCOc1ccc([N+](=O)[O-])nc1C
24,88 to 89,Cc1cccc(C(O)CNC(=C[N+](=O)[O-])NCCSCc2cc(C)c(CN(C)C)s2)c1 (configuration not stated)
25,150 to 153,CC(C)N1OCCC(C(O)c2cc(C(C)(C)C)c(O)c(C(C)(C)C)c2)C1=O (configuration not stated)

row,melting point [°C],Structure (SMILES)
1,135,COc1cc(C(=O)/C=C/c2ccc3c(c2)OCO3)cc(OC)c1OC
2,80.2,C=CCCC(C#N)(C#N)Cc1ccc(OC(C)=O)cc1
3,78 to 80,CCCCCOC(=O)Cc1nc(-c2ccc(F)cc2)oc1-c1ccsc1
4,198,CCc1nc(C2CC2)c(C(=O)O)n1Cc1ccc2oc(-c3ccccc3-c3nnn[nH]3)c(Br)c2c1
5,192 to 195,CCc1ccc2c(c1)c(-c1ccccc1Cl)c(NC(=O)Nc1ccc(F)cc1F)c(=O)n2C
6,65 to 66,C=CCOc1cc(O)c(C=NO)c(Cl)c1
7,111 to 117,O=c1[nH]c(-c2ccc(CCCCCl)cc2)cs1
8,101,CN(C(=O)COc1nnc(Cl)s1)c1ccccc1
9,190 to 206,CCc1nc2c(N)nc3ccccc3c2n1CC#Cc1ccc([N+](=O)[O-])cc1
10,129 to 131,CN(C)C[C@@H]1C(=O)N[C@H]1SC(c1ccccc1)(c1ccccc1)c1ccccc1 (relative stereo)
11,272 to 274,COc1ccc2nc3c(C(=O)O)cccn3c(=O)c2c1
12,271 to 273,FC(F)c1nc2ccccc2n1-c1nc(Nc2cccnn2)nc(N2CCOCC2)n1
13,62 to 64,Cn1nc(N)nc1NCCCOc1cccc(CNCC(F)(F)F)c1
14,97 to 99,Cn1c(COc2ccc(CC3SC(=O)N(C(c4ccccc4)(c4ccccc4)c4ccccc4)C3=O)cc2)nc2ccc(Cl)nc21 (configuration not stated)
15,125 to 130,CC=Cc1ccc2c(c1)C(=O)N(c1ccc(C(C)C(=O)OC(C)(C)C)cc1)C2 (configuration not stated)
16,75 to 76,COc1cc(CCO[Si](C)(C)C(C)(C)C)c(C2=CC3CCC2N3C(=O)OC(C)(C)C)cn1 (configuration not stated)
17,245 to 247,C#Cc1cccc(Nc2ncnc3[nH]cc(-c4ccc(C)cc4)c23)c1
18,224 to 225,CN(C)C(=O)Cn1c(-c2ccc(Br)cc2)nc2cccnc21
19,116,COC(=O)c1cccc(F)c1S(C)(=O)=O
20,153,CCCCCCCCCCCCCCC(=O)Oc1ccc2cc(C(=N)N)ccc2c1
21,213,COc1ccc(-c2n[nH]c(=O)cc2-c2ccc(OC)c(F)c2)cc1
22,190,Cc1cc(-c2ccc(C(F)(F)F)cc2)cc(-c2cccc(-c3cccc(S(=O)(=O)NC(=O)C(C)C)c3)n2)n1
23,350 to 351,O=C(O)c1ccc2c(c1)C(=O)c1cccc(C(=O)O)c1S2(=O)=O
24,143 to 145,Nc1ccc(C(=O)c2ccccc2)cc1CC(=O)O
25,115 to 116,O=C(/C=C/c1cccnc1)NCCc1cccc(OCc2ccccc2)c1

row,melting point [°C],Structure (SMILES)
1,121,COc1ccc(C2=C(CO)c3ccc(OC)cc3CC2)cc1
2,83.5 to 84,COc1nc2c(cc1C#N)CCCCC2
3,129 to 131,CCOC(=O)C=CC=CCCC(C)C1CCC2C3CCC4CC(OC(C)=O)CCC4(C)C3CC(OC(C)=O)C12C (configuration not stated)
4,141 to 143,CC(=O)Oc1ccc(Oc2cccc(C(=O)O)c2)cc1
5,95,O=Cc1cc(Oc2ccc(C(F)(F)F)cc2Cl)ccc1[N+](=O)[O-]
6,130 to 131,COc1cc(OC)cc(C(=O)N2CCc3cc(OCc4ccccc4)c(OC)cc3C2)c1
7,72 to 74,C(=NC1CCCCC1)c1cccc(Oc2ccccc2)c1
8,46 to 48,Cc1ccc(OC2=C(Oc3ccc(C)cc3)C(F)(F)C(F)(F)C2(F)F)cc1
9,135 to 137,Cc1oc(-c2ccccc2)nc1CCOc1ccc(COc2cc3ccccc3cc2C(=O)O)cc1
10,93 to 95,CC1(C)COC(c2c(Cl)cc(Cl)cc2-c2ccc(F)cc2)=N1
11,155 to 157,CCNC(=O)[C@@H](C[C@H](O)[C@H](CC1CCCCC1)NC(=O)OC(C)(C)C)C(C)(C)O
12,176 to 179,CCOC(=O)C1=C(c2ccc(-c3ocnc3C)cc2)NC(C)=C(C(=O)Nc2ccccn2)C1c1ccccc1Cl (configuration not stated)
13,178 to 180,O=C(O)c1ccc(Cn2cc(C3c4ccccc4C=Cc4ccccc43)c(=S)[nH]c2=O)o1
14,209 to 212,CCOC(=O)c1cc2c(C=O)cc3c4ccccc4ccc3c2o1
15,53 to 55,FC(F)(F)Sc1cc(C(F)(F)F)[nH]c1-c1ccc(Cl)cc1
16,267 to 270,O=C(N[C@@H](Cc1ccc(OCc2ccccc2)cc1)C(=O)O)c1cn2cc(/C=C/c3ccc(Cl)cc3)ccc2n1
17,54 to 55,O=[N+]([O-])c1ccc(-n2cccc2)c(Cl)c1
18,171 to 172,OC1(NC2=NCCS2)C(=Cc2ccccc2)CSCC1=Cc1ccccc1 (configuration not stated)
19,245 to 250,CCNc1cc(NS(=O)(=O)c2ccc(N)cc2)nc(NCC)n1
20,231 to 233,CCCCc1nc2c(N)nc3ccccc3c2n1CC(C)(C)C(N)=O
21,170 to 172,N#Cc1cccc(C=CC(=O)c2ccc(F)cc2)c1
22,161 to 165,N#CC(=C1C=CC(=NO[Si](c2ccccc2)(c2ccccc2)c2ccccc2)C=C1)c1ccccc1
23,85 to 88,CCCCCCCCCCCCCCCCCCOc1cc(OCCCOc2ccc(O)cc2)cc(C(=O)OC)c1
24,92.5 to 94,O=C(c1ccccc1)C(Cl)(Cl)C1CCCCC1

row,Structure (SMILES),melting point [°C]
1,CC(C)OC(=O)c1ncn2c1CN(C)C(=O)c1cc(F)ccc1-2,243 to 244
2,CN1CCC2c3[nH]c4ccccc4c3CCN2C1 (configuration not stated),168
3,Cc1ccc2c(c1)oc1c(C(=O)NC3CCCCC3)nn(-c3ccc(Cl)cc3Cl)c12,140 to 142
